Reference: doi:10.1101/2021.04.08.439011v1 (biorxiv, 2021)
Like-named read-outs stand apart in the source and are kept apart here.

Tests used:
AAK1 = AAK1 (Homo sapiens, UniProt Q2M2I8); conditions: 0.1 µM; binder
ABL1(E255K) = ABL1(E255K) (Homo sapiens, UniProt P00519, E255K); conditions: phosphorylated; 0.1 µM; binder
ABL1(F317I) = ABL1(F317I) (Homo sapiens, UniProt P00519, F317I); conditions: 0.1 µM, binder
ALK(C1156Y) = ALK(C1156Y) (Homo sapiens, UniProt Q9UM73, C1156Y); conditions: 0.1 µM; binder
BMX = BMX (Homo sapiens, UniProt P51813); conditions: 0.1 µM; binder
BRAF(V600E) = BRAF(V600E) (Homo sapiens, UniProt P15056, V600E); conditions: 0.1 µM; binder
CAMK1D = CAMK1D (Homo sapiens, UniProt Q8IU85); conditions: 0.1 µM; binder
CDKL5 = CDKL5 (Homo sapiens, UniProt O76039); conditions: 0.1 µM; binder
CSK = CSK (Homo sapiens, UniProt P41240); conditions: 0.1 µM; binder
Chain of CSK (P41240 whole entry): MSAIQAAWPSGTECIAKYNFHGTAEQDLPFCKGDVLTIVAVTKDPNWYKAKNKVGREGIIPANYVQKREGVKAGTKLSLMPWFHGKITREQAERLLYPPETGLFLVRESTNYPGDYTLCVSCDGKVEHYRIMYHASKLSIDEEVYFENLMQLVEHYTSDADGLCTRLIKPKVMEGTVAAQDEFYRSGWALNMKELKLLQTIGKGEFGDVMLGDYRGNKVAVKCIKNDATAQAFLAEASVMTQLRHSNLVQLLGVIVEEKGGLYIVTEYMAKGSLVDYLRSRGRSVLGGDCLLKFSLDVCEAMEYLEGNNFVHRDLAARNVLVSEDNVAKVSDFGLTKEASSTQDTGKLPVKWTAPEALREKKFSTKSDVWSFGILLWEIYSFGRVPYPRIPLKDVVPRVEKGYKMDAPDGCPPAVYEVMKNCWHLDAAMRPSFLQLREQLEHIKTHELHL

DCAMKL1 = DCAMKL1 (Homo sapiens, UniProt O15075); conditions: 0.1 µM; binder
EGFR(T790M) = EGFR(T790M) (Homo sapiens, UniProt P00533, T790M); conditions: 0.1 µM; binder
EPHB6 = EPHB6 (Homo sapiens, UniProt O15197); conditions: 0.1 µM; binder
Chain of EPHB6 (O15197 whole entry): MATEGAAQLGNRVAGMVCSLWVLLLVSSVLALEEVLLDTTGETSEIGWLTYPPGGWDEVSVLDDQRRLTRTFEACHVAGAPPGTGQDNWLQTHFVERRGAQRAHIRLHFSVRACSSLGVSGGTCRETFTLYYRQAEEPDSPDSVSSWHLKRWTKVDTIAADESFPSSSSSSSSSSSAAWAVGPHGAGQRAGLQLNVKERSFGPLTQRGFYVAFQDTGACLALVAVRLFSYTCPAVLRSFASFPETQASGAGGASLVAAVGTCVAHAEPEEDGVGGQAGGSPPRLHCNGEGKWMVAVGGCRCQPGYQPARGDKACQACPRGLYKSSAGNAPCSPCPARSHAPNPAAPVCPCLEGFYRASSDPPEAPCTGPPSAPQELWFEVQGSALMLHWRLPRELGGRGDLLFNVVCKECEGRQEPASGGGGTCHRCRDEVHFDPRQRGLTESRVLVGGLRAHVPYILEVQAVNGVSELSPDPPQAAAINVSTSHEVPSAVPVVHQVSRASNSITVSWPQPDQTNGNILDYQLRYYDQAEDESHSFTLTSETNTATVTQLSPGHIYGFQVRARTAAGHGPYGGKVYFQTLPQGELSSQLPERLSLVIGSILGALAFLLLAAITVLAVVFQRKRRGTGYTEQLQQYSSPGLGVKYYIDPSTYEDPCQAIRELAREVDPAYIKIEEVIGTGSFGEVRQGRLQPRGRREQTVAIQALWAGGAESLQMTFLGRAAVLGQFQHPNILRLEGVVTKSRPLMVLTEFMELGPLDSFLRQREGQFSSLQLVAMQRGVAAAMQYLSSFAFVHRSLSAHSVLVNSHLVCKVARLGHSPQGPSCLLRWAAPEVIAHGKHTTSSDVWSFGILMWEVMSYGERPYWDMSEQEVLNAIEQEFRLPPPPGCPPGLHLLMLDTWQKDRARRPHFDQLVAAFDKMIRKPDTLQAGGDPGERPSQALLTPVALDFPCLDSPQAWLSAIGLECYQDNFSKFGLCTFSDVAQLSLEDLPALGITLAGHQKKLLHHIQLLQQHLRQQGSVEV

FGFR1 = FGFR1 (Homo sapiens, UniProt P11362); conditions: 0.1 µM; binder
GRK2 = GRK2 (Homo sapiens, UniProt P25098); conditions: 0.1 µM; binder
HASPIN = HASPIN (Homo sapiens, UniProt Q8TF76); conditions: 0.1 µM; binder
IRAK3 = IRAK3 (Homo sapiens, UniProt Q9Y616); conditions: 0.1 µM; binder
JNK3 = JNK3 (Homo sapiens, UniProt P53779); conditions: 0.1 µM; binder
KIT = KIT (Homo sapiens, UniProt P10721); conditions: 0.1 µM, binder
Chain of KIT (P10721 whole entry): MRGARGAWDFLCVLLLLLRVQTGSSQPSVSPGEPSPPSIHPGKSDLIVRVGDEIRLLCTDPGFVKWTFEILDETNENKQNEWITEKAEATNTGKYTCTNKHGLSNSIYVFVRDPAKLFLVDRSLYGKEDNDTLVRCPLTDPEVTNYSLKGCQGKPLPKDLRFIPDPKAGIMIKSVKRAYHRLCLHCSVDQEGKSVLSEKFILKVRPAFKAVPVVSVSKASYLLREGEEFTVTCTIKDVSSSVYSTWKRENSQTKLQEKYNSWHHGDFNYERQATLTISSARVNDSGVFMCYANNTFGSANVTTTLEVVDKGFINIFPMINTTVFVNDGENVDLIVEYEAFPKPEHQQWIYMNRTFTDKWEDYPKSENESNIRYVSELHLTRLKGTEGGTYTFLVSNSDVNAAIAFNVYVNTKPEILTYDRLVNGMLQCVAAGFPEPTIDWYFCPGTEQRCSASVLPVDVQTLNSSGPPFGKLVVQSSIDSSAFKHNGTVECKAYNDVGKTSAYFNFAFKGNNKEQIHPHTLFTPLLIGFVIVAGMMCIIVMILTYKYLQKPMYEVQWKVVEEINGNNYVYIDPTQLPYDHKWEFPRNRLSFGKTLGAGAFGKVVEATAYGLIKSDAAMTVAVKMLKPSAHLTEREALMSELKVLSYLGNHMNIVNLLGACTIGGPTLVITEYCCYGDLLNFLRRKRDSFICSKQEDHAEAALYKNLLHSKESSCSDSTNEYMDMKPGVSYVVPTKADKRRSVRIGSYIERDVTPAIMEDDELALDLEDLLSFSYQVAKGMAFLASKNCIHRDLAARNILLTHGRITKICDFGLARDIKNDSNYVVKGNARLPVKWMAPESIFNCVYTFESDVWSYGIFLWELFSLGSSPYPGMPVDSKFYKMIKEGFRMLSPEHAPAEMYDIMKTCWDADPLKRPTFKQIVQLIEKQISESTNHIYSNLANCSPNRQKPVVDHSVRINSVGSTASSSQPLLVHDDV

MAP3K3 = MAP3K3 (Homo sapiens, UniProt Q99759); conditions: 0.1 µM; binder
MKNK2 = MKNK2 (Homo sapiens, UniProt Q9HBH9); conditions: 0.1 µM; binder
MLK2 = MLK2 (Homo sapiens, UniProt Q02779); conditions: 0.1 µM; binder
NEK4 = NEK4 (Homo sapiens, UniProt P51957); conditions: 0.1 µM; binder
PCTK1 = PCTK1 (Homo sapiens, UniProt Q00536); conditions: 0.1 µM; binder
PCTK2 = PCTK2 (Homo sapiens, UniProt Q00537); conditions: 0.1 µM; binder
PHKG1 = PHKG1 (Homo sapiens, UniProt Q16816); conditions: 0.1 µM; binder
Chain of PHKG1 (Q16816 whole entry): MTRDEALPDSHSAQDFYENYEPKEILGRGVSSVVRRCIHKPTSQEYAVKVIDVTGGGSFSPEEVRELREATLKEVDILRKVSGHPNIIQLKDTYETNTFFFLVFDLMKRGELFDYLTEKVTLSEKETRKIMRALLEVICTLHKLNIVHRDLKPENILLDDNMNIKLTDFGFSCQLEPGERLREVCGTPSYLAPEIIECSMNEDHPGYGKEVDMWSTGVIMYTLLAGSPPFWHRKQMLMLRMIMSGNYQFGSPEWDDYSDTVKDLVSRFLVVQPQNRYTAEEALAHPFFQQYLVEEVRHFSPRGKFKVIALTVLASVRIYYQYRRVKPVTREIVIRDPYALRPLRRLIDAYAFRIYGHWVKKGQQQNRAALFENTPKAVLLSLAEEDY

PHKG2 = PHKG2 (Homo sapiens, UniProt P15735); conditions: 0.1 µM; binder
PIK3CD = PIK3CD (Homo sapiens, UniProt O00329); conditions: 0.1 µM; binder
PYK2 = PYK2 (Homo sapiens, UniProt Q14289); conditions: 0.1 µM; binder
SIK2 = SIK2 (Homo sapiens, UniProt Q9H0K1); conditions: 0.1 µM; binder
Chain of SIK2 (Q9H0K1 whole entry): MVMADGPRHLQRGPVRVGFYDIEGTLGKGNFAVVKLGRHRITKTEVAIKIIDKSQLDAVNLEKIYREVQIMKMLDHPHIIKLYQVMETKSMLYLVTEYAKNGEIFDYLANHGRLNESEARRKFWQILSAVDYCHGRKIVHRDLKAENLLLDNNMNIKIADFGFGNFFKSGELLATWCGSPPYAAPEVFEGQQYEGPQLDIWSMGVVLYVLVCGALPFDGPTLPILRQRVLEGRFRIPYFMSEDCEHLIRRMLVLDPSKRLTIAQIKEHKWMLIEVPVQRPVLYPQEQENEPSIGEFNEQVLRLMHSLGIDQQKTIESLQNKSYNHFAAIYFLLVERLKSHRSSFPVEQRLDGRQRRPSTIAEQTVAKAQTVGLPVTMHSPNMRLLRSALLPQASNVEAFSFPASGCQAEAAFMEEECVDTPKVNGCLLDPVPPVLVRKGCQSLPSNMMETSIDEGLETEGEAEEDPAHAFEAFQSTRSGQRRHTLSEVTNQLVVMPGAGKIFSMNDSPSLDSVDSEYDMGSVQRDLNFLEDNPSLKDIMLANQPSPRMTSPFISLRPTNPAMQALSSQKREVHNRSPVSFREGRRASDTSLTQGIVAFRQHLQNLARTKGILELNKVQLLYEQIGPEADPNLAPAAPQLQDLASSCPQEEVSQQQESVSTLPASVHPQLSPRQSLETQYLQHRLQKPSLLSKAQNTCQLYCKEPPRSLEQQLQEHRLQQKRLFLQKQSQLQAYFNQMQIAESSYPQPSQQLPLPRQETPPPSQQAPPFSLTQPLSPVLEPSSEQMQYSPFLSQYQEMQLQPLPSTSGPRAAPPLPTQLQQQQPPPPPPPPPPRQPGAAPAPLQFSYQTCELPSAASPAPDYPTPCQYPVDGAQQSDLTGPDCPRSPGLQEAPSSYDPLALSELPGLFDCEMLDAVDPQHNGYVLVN

TSSK3 = TSSK3 (Homo sapiens, UniProt Q96PN8); conditions: 0.1 µM; binder

Chain of ABL1(F317I) (P00519 whole entry F317I): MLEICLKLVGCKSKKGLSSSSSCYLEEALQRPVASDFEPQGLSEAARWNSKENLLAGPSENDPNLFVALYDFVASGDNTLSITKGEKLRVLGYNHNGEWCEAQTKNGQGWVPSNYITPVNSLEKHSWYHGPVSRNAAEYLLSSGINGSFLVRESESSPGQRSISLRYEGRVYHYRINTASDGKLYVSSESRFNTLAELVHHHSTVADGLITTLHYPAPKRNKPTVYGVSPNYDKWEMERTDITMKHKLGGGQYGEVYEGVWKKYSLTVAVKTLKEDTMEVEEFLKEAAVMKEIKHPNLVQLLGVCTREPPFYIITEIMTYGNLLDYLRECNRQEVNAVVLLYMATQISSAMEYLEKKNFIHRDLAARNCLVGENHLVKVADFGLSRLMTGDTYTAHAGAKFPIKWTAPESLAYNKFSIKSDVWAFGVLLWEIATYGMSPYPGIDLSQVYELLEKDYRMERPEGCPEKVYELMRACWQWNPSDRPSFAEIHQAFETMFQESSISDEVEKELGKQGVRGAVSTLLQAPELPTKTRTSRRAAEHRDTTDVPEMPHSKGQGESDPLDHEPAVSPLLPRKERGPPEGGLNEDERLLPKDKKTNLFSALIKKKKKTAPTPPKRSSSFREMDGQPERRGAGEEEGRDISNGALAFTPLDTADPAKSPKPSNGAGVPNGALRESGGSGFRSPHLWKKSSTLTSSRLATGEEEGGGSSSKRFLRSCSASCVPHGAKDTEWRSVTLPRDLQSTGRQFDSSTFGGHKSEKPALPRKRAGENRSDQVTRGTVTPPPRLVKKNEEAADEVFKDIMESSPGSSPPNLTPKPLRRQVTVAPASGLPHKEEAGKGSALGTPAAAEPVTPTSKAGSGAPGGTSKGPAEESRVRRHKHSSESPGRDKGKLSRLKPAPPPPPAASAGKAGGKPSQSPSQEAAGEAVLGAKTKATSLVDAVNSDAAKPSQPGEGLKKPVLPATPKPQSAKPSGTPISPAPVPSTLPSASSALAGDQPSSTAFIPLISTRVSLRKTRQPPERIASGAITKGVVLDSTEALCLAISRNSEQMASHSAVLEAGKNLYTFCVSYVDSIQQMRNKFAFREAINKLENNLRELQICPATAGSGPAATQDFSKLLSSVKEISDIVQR
Chain of ABL1(E255K) (P00519 whole entry E255K): as the sequence (P00519 whole entry F317I) above, with E255K, I317F counted along it

SMILES: CNc1ncc2cc(-c3ccc(-c4cccc(C)n4)cc3Cl)c(=O)n(C[C@H]3OC[C@H](N)CO3)c2n1 [compound 6, G-5555]
- Percent Control (AAK1): 100%
- Percent Control (ABL1(E255K)): 100%
- Percent Control (ABL1(F317I); nonphosphorylated): 100%
- Percent Control (ABL1(F317I); phosphorylated): 87%
- Percent Control (ALK(C1156Y)): 100%
- Percent Control (BMX): 100%
- Percent Control (BRAF(V600E)): 100%
- Percent Control (CAMK1D): 43%
- Percent Control (CDKL5): 82%
- Percent Control (CSK): 100%
- Percent Control (DCAMKL1): 80%
- Percent Control (EGFR(T790M)): 100%
- Percent Control (EPHB6): 61%
- Percent Control (FGFR1): 100%
- Percent Control (GRK2): 97%
- Percent Control (HASPIN): 87%
- Percent Control (IRAK3): 95%
- Percent Control (JNK3): 92%
- Percent Control (KIT): 100%
- Percent Control (KIT; autoinhibited): 82%
- Percent Control (MAP3K3): 86%
- Percent Control (MKNK2): 100%
- Percent Control (MLK2): 100%
- Percent Control (NEK4): 100%
- Percent Control (PCTK1): 100%
- Percent Control (PCTK2): 100%
- Percent Control (PHKG1): 100%
- Percent Control (PHKG2): 100%
- Percent Control (PIK3CD): 53%
- Percent Control (PYK2): 100%
- Percent Control (SIK2): 6.5%
- Percent Control (TSSK3): 100%
